Patent US5281628A, “9-amino-7-(substituted)-6-demethyl-6-deoxytetracyclines” (American Cyanamid Company, priority 1991, dated 1994)
Structures can show the parent of a compound that is named as a salt.

Legend:
Format in all cases: cell-based
E. coli ATCC 25922 = test: MIC, microtiter broth dilution; settings: Escherichia coli, ATCC25922, 18 h
Method: (§1) The minimum inhibitory concentration (MIC), the lowest concentration of the antibiotic which inhibits growth of the test organism, is determined by the microtiter broth dilution method using 0.1 ml Muller-Hinton II broth (Baltimore Biological Laboratories) per well. A suitable oxygen scavenger (i.e., cysteine or dithiothreitol) is added to the assay medium for the testing of compounds according to Formula I because of the sensitivity of those compounds to oxidation. An inoculum level of 1-5×10^5 CFU/ml and a range of antibiotic concentrations (32 0.004 μg/ml) are used.

[1] = tested on: E. coli UBMS 89-2 (tetracycline-sensitive); test: MIC, microtiter broth dilution; settings: Escherichia coli, 18 h
Method: as §1

[2] = tested on: E. coli UBMS 90-5 (tetracycline-sensitive); test: MIC, microtiter broth dilution; settings: Escherichia coli, 18 h
Method: as §1

E. faecalis ATCC 29212 = test: MIC, microtiter broth dilution; settings: Enterococcus faecalis, ATCC29212, 18 h
Method: as §1

M. morganii NEMC 87-119 = test: MIC, microtiter broth dilution; settings: Morganella morganii, NEMC87119, 18 h
Method: as §1

P. aeruginosa ATCC 27853 = test: MIC, microtiter broth dilution; settings: Pseudomonas aeruginosa, ATCC27853, 18 h
Method: as §1

[3] = tested on: S. aureus IVES 1983 (methicillin-resistant); test: MIC, microtiter broth dilution; settings: Staphylococcus aureus, 18 h
Method: as §1

[4] = tested on: S. aureus IVES 2943 (methicillin-resistant); test: MIC, microtiter broth dilution; settings: Staphylococcus aureus, 18 h
Method: as §1

[5] = tested on: S. aureus UBMS 90-3 (tetracycline-sensitive); test: MIC, microtiter broth dilution; settings: Staphylococcus aureus, 18 h
Method: as §1

[6] = tested on: S. haemolyticus AVAH 88-3; test: MIC, microtiter broth dilution; settings: Staphylococcus haemolyticus, AVAH883, 18 h; S. haemolyticus AVAH 88-3; in the presence of cysteine (0.05%); read-out: MIC
Method: as §1

S. marcescens FPOR 87-33 = test: MIC, microtiter broth dilution; settings: Serratia marcescens, FPOR8733, 18 h
Method: as §1

[7] = tested on: tetracycline sensitive and resistant Gram-positive and Gram-negative bacteria; test: In vitro antibacterial evaluation, statements on the whole panel
Method: as §1

[8] = tested on: E. coli UBMS 88-2 (tetracycline-sensitive); test: MIC, microtiter broth dilution; settings: Escherichia coli, 18 h, no cysteine stated
Method: as §1

E. coli UBMS 90-4 (tetM) = test: MIC, microtiter broth dilution; settings: Escherichia coli, 18 h
Method: as §1

S. aureus ATCC 29213 = test: MIC, microtiter broth dilution; settings: Staphylococcus aureus, ATCC29213, 18 h, no cysteine stated
Method: as §1

[9] = tested on: S. aureus UBMS 88-4 (tetracycline-sensitive); test: MIC, microtiter broth dilution; settings: Staphylococcus aureus, 18 h, no cysteine stated
Method: as §1

[10] = tested on: X. maltophilia FPOR 87-210; test: MIC, microtiter broth dilution; settings: Stenotrophomonas maltophilia, FPOR87210, 18 h, no cysteine stated
Method: as §1

E. coli UBMS 88-1 (tetB) = test: microbe, parasite or virus in culture; settings: Escherichia coli, 18 h
Method: as §1

[11] = tested on: S. aureus UBMS 88-5 (tetM); test: microbe, parasite or virus in culture; settings: Staphylococcus aureus, 18 h
Method: as §1

[12] = tested on: S. aureus UBMS 88-7 (tetK); test: microbe, parasite or virus in culture; settings: Staphylococcus aureus, 18 h
Method: as §1

[13] = in the presence of cysteine (0.05%)

For `CCN(CC)c1cc(N)c(O)c2c1C[C@H]1C[C@H]3[C@H](N(C)C)C(O)=C(C(N)=O)C(=O)[C@@]3(O)C(O)=C1C2=O` [C, 9-Amino-7-(diethylamino)-6-demethyl-6-deoxytetracycline sulfate], the MIC (E. coli ATCC 25922; [13]) was 0.5 µg/mL, the MIC [1, 13] was 0.5 µg/mL and the MIC [2, 13] was 1 µg/mL. The MIC (E. faecalis ATCC 29212; [13]) was 0.12 µg/mL, the MIC (M. morganii NEMC 87-119; [13]) was 2 µg/mL and the MIC (P. aeruginosa ATCC 27853; [13]) was 8 µg/mL. It also gave an MIC [3, 13] of 0.25 µg/mL, an MIC [4, 13] of 0.25 µg/mL and an MIC [5, 13] of 0.03 µg/mL. The MIC [6] was 0.12 µg/mL, the MIC (S. marcescens FPOR 87-33; [13]) was 4 µg/mL and the “antibacterial activity versus D” value ([7]; comparator D) was “enhancement of antibacterial activity”.
With `CCN(CC)c1ccc(O)c2c1C[C@H]1C[C@H]3[C@H](N(C)C)C(O)=C(C(N)=O)C(=O)[C@@]3(O)C(O)=C1C2=O` [D, 7-(Diethylamino)-6-demethyl-6-deoxytetracycline sulfate] the MIC (E. coli ATCC 25922; no cysteine stated) was 1 µg/mL, the MIC [8] was 2 µg/mL and the MIC ([1]; no cysteine stated) was 4 µg/mL. It also gave an MIC (E. coli UBMS 90-4 (tetM)) of over 32 µg/mL, an MIC ([2]; no cysteine stated) of 2 µg/mL and an MIC (E. faecalis ATCC 29212; no cysteine stated) of 8 µg/mL. It also gave an MIC (M. morganii NEMC 87-119; no cysteine stated) of 32 µg/mL, an MIC (P. aeruginosa ATCC 27853; no cysteine stated) of 32 µg/mL and an MIC (S. aureus ATCC 29213) of under 0.015 µg/mL. The MIC ([3]; no cysteine stated) was 8 µg/mL, the MIC ([4]; no cysteine stated) was 8 µg/mL and the MIC [9] was 0.03 µg/mL. It also gave an MIC ([5]; no cysteine stated) of 0.03 µg/mL, an MIC (S. marcescens FPOR 87-33; no cysteine stated) of 32 µg/mL and an MIC [10] of 0.25 µg/mL. For the same molecule, the MIC (E. coli UBMS 88-1 (tetB)) was 32 µg/mL, the MIC [11] was 16 µg/mL and the MIC [12] was 0.12 µg/mL. The “Antibacterial potency in the presence of cysteine” value ([7]; in the presence of cysteine versus without) was “not enhanced”.
